In PubChem BioAssay (NCI):
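Grown in 96-well plates, cells were treated for 48 hours with each compound at five concentrations. Insufficient inhibition: endpoint recorded as highest concentration tested. GI50: concentration for 50% inhibition of growth. TGI marks complete inhibition of growth.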

Key:
Assay in all cases: NCI-60 cell line screen, 48 h; in the data active = GI50 below about 0.43 µM; inactive = the rest
SK-MEL-2 melanoma = test system: SK-MEL-2 melanoma
NCI-H23 lung = test system: NCI-H23 lung
HCT-15 colon = test system: HCT-15 colon
MDA-MB-231 breast = test system: MDA-MB-231 breast
DU-145 prostate = test system: DU-145 prostate
SR leukemia = test system: SR leukemia
SK-MEL-5 melanoma = test system: SK-MEL-5 melanoma
HOP-92 NSCLC = test system: HOP-92 NSCLC
MALME-3M melanoma = test system: MALME-3M melanoma
ACHN renal = test system: ACHN renal
A498 renal = test system: A498 renal
HCC-2998 colon = test system: HCC-2998 colon
T-47D breast = test system: T-47D breast
TK-10 renal = test system: TK-10 renal
NCI-H522 lung = test system: NCI-H522 lung
HL-60(TB) leukemia = test system: HL-60(TB) leukemia
SW-620 colon = test system: SW-620 colon
HS 578T breast = test system: HS 578T breast
SK-MEL-28 melanoma = test system: SK-MEL-28 melanoma
IGROV1 ovarian = test system: IGROV1 ovarian
A549 NSCLC = test system: A549 NSCLC
BT-549 breast = test system: BT-549 breast
MDA-MB-435 = test system: MDA-MB-435
UO-31 renal = test system: UO-31 renal
MCF7 breast = test system: MCF7 breast
COLO 205 colon = test system: COLO 205 colon
MOLT-4 leukemia = test system: MOLT-4 leukemia
KM12 colon = test system: KM12 colon
NCI-H226 lung = test system: NCI-H226 lung
OVCAR-3 ovarian = test system: OVCAR-3 ovarian
NCI/ADR-RES ovarian = test system: NCI/ADR-RES ovarian
K-562 leukemia = test system: K-562 leukemia
SNB-75 CNS = test system: SNB-75 CNS
HOP-62 NSCLC = test system: HOP-62 NSCLC
LOX IMVI melanoma = test system: LOX IMVI melanoma
PC-3 prostate = test system: PC-3 prostate
U251 CNS = test system: U251 CNS
CAKI-1 renal = test system: CAKI-1 renal
EKVX NSCLC = test system: EKVX NSCLC
SF-268 CNS = test system: SF-268 CNS
786-0 renal = test system: 786-0 renal
UACC-62 melanoma = test system: UACC-62 melanoma
RXF 393 renal = test system: RXF 393 renal
SNB-19 CNS = test system: SNB-19 CNS
SF-295 CNS = test system: SF-295 CNS
SF-539 CNS = test system: SF-539 CNS
HCT-116 colon = test system: HCT-116 colon
UACC-257 melanoma = test system: UACC-257 melanoma
SK-OV-3 ovarian = test system: SK-OV-3 ovarian
M14 melanoma = test system: M14 melanoma
SN12C renal = test system: SN12C renal
RPMI-8226 leukemia = test system: RPMI-8226 leukemia
CCRF-CEM leukemia = test system: CCRF-CEM leukemia
MDA-MB-468 breast = test system: MDA-MB-468 breast
OVCAR-8 ovarian = test system: OVCAR-8 ovarian

Cc1noc2c(Cc3ccccc3)nn(CC(=O)N/N=C/c3ccc(Br)cc3)c(=O)c12
3.34 µM: TGI (A498 renal)
6.11 µM: TGI (NCI-H226 lung)
38.7 µM: TGI (IGROV1 ovarian)
41.3 µM: TGI (NCI-H23 lung)
12.7 µM: TGI (MDA-MB-231 breast)
33.7 µM: TGI (SK-MEL-2 melanoma)
13.1 µM: TGI (HOP-62 NSCLC)
9.49 µM: TGI (SK-OV-3 ovarian)
12.6 µM: TGI (RXF 393 renal)
88.1 µM: TGI (NCI-H522 lung)
49.6 µM: TGI (UACC-62 melanoma)
9.71 µM: TGI (TK-10 renal)
30 µM: TGI (U251 CNS)
> 100 µM: TGI (HCT-15 colon) | TGI (DU-145 prostate) | TGI (SR leukemia) | TGI (SK-MEL-5 melanoma) | TGI (HCC-2998 colon) | TGI (HL-60(TB) leukemia) | TGI (SW-620 colon) | TGI (SK-MEL-28 melanoma) | TGI (A549 NSCLC) | TGI (MDA-MB-435) | TGI (MCF7 breast) | TGI (COLO 205 colon) | TGI (MOLT-4 leukemia) | TGI (KM12 colon) | TGI (OVCAR-3 ovarian) | TGI (NCI/ADR-RES ovarian) | TGI (K-562 leukemia) | TGI (LOX IMVI melanoma) | TGI (PC-3 prostate) | TGI (EKVX NSCLC) | TGI (SF-268 CNS) | TGI (UACC-257 melanoma) | TGI (M14 melanoma) | TGI (SN12C renal) | TGI (RPMI-8226 leukemia) | TGI (CCRF-CEM leukemia) | TGI (OVCAR-8 ovarian)
4.17 µM: TGI (786-0 renal)
25.2 µM: TGI (CAKI-1 renal)
21.1 µM: TGI (SF-295 CNS)
44.3 µM: TGI (MALME-3M melanoma)
6.91 µM: TGI (ACHN renal)
21.5 µM: TGI (HOP-92 NSCLC)
36.8 µM: TGI (SF-539 CNS)
17.7 µM: TGI (HS 578T breast) | TGI (HCT-116 colon)
6.96 µM: TGI (SNB-75 CNS)
4.67 µM: TGI (UO-31 renal)
49.4 µM: TGI (BT-549 breast)
30.2 µM: TGI (SNB-19 CNS)
inactive: GI50 (SK-MEL-2 melanoma) 17.5 µM | GI50 (NCI-H23 lung) 9.2 µM | GI50 (HCT-15 colon) > 100 µM | GI50 (MDA-MB-231 breast) 3.34 µM | GI50 (DU-145 prostate) 76.2 µM | GI50 (SR leukemia) 14.7 µM | GI50 (SK-MEL-5 melanoma) 28.4 µM | GI50 (HOP-92 NSCLC) 4.3 µM | GI50 (MALME-3M melanoma) 14.5 µM | GI50 (ACHN renal) 2.71 µM | GI50 (A498 renal) 1.73 µM | GI50 (HCC-2998 colon) > 100 µM | GI50 (T-47D breast) 1.96 µM | GI50 (TK-10 renal) 3.01 µM | GI50 (NCI-H522 lung) 12.9 µM | GI50 (HL-60(TB) leukemia) > 100 µM | GI50 (SW-620 colon) > 100 µM | GI50 (HS 578T breast) 3.06 µM | GI50 (SK-MEL-28 melanoma) > 100 µM | GI50 (IGROV1 ovarian) 13.5 µM | GI50 (A549 NSCLC) 6.34 µM | GI50 (BT-549 breast) 17.7 µM | GI50 (MDA-MB-435) > 100 µM | GI50 (UO-31 renal) 1.91 µM | GI50 (MCF7 breast) 77 µM | GI50 (COLO 205 colon) 7.46 µM | GI50 (MOLT-4 leukemia) 50.6 µM | GI50 (KM12 colon) > 100 µM | GI50 (NCI-H226 lung) 2.33 µM | GI50 (OVCAR-3 ovarian) 3.36 µM | GI50 (NCI/ADR-RES ovarian) 5.64 µM | GI50 (K-562 leukemia) 25.7 µM | GI50 (SNB-75 CNS) 1.74 µM | GI50 (HOP-62 NSCLC) 3.37 µM | GI50 (LOX IMVI melanoma) 8.98 µM | GI50 (PC-3 prostate) 29.8 µM | GI50 (U251 CNS) 3.48 µM | GI50 (CAKI-1 renal) 5.6 µM | GI50 (EKVX NSCLC) 31.3 µM | GI50 (SF-268 CNS) 22.8 µM | GI50 (786-0 renal) 1.89 µM | GI50 (UACC-62 melanoma) 13.2 µM | GI50 (RXF 393 renal) 3.04 µM | GI50 (SNB-19 CNS) 13.3 µM | GI50 (SF-295 CNS) 5.79 µM | GI50 (SF-539 CNS) 15.8 µM | GI50 (HCT-116 colon) 3.31 µM | GI50 (UACC-257 melanoma) > 100 µM | GI50 (SK-OV-3 ovarian) 3.19 µM | GI50 (M14 melanoma) 29.8 µM | GI50 (SN12C renal) 3.27 µM | GI50 (RPMI-8226 leukemia) 29.1 µM | GI50 (CCRF-CEM leukemia) 30.5 µM | GI50 (MDA-MB-468 breast) 9.61 µM | GI50 (OVCAR-8 ovarian) 4.62 µM
35.9 µM: TGI (MDA-MB-468 breast)
5.46 µM: TGI (T-47D breast)
